# Test results taken from US20080051418A1, “Arylalkanoic Acid Derivative” (priority 2004, published 2008).
row,Structure (SMILES),melting point [°C]
1,"CCc1cccc(CC(=O)O)c1OCCCc1cn(Cc2nc(-c3ccccc3)oc2C)nc1C(C)C [Example 54, [3-ethyl-2-(3-{3-isopropyl-1-[(5-methyl-2-phenyl-1,3-oxazol-4-yl)methyl]-1H-pyrazol-4-yl}propoxy)phenyl]acetic acid]",94 to 95
2,"CC(C)n1nc(COc2ccccc2CC(=O)O)cc1OCc1ccc2ccccc2n1 [Example 55, (2-{[1-isopropyl-5-(quinolin-2-ylmethoxy)-1H-pyrazol-3-yl]methoxy}phenyl)acetic acid]",116 to 117
3,"COc1cccc(CC(=O)O)c1OCCCc1cc(OC(C)C)nn1Cc1c(F)cccc1Cl [Example 67, (2-{3-[1-(2-chloro-6-fluorobenzyl)-3-isopropoxy-1H-pyrazol-5-yl]propoxy}-3-methoxyphenyl)acetic acid]",97 to 98
4,"CCOc1cc(Cl)ccc1Cn1nc(OC(C)C)cc1CCCOc1c(CC(=O)O)cccc1OC [Example 69, (2-{3-[1-(4-chloro-2-ethoxybenzyl)-3-isopropoxy-1H-pyrazol-5-yl]propoxy}-3-methoxyphenyl)acetic acid]",98 to 99
5,"Cc1cc(Cl)ccc1Cn1nc(OC(C)C)cc1CCCOc1ncccc1CC(=O)O [Example 74, (2-{3-[1-(4-chloro-2-methylbenzyl)-3-isopropoxy-1H-pyrazol-5-yl]propoxy}pyridin-3-yl)acetic acid]",97 to 98
6,"CCCOc1cc(CCCOc2c(CC(=O)O)cccc2OC)n(Cc2ccc(Cl)cc2)n1 [Example 81, (2-{3-[1-(4-chlorobenzyl)-3-propoxy-1H-pyrazol-5-yl]propoxy}-3-methoxyphenyl)acetic acid]",131 to 132
7,"CC(C)Oc1cc(CCCOc2c(CC(=O)O)ccc3ccccc23)n(Cc2ccc(Cl)cc2Cl)n1 [Example 87, (1-{3-[1-(2,4-dichlorobenzyl)-3-isopropoxy-1H-pyrazol-5-yl]propoxy}-2-naphthyl)acetic acid]",96 to 98
8,"CCCOc1cc(CCCOc2nn(C)cc2CC(=O)O)n(Cc2ccc(Cl)cc2Cl)n1 [Example 88, (3-{3-[1-(2,4-dichlorobenzyl)-3-propoxy-1H-pyrazol-5-yl]propoxy}-1-methyl-1H-pyrazol-4-yl)acetic acid]",77 to 81
9,"CCCOc1cc(CCCOc2nn(Cc3ccccc3)cc2CC(=O)O)n(Cc2ccc(Cl)cc2Cl)n1 [Example 89, (1-benzyl-3-{3-[1-(2,4-dichlorobenzyl)-3-propoxy-1H-pyrazol-5-yl]propoxy}-1H-pyrazol-4-yl)acetic acid]",132 to 134
10,"CCCOc1cc(CCCOc2nn(Cc3ccccc3)cc2CC(=O)O)n(Cc2ccc(F)cc2F)n1 [Example 90, (1-benzyl-3-{3-[1-(2,4-difluorobenzyl)-3-propoxy-1H-pyrazol-5-yl]propoxy}-1H-pyrazol-4-yl)acetic acid]",94 to 95
11,"CC(C)Oc1cc(CCCOc2ncccc2CC(=O)O)n(Cc2ccc(Cl)cc2OC(C)C)n1 [Example 94, (2-{3-[1-(4-chloro-2-isopropoxybenzyl)-3-isopropoxy-1H-pyrazol-5-yl]propoxy}pyridin-3-yl)acetic acid]",82 to 84
12,"CC(C)Oc1ccc(CCCCOc2cc(CCC(=O)O)n(C)n2)c(Oc2ncc(C(F)(F)F)cc2Cl)c1 [Example 155, 3-{3-[4-(2-{[3-chloro-5-(trifluoromethyl)pyridin-2-yl]oxy}-4-isopropoxyphenyl)butoxy]-1-methyl-1H-pyrazol-5-yl}propanoic acid]",156 to 157
13,"CC(C)Cn1nc(OCCCCc2ccc(OC(C)C)cc2Oc2ncc(C(F)(F)F)cc2Cl)cc1CCC(=O)O [Example 157, 3-{3-[4-(2-{[3-chloro-5-(trifluoromethyl)pyridin-2-yl]oxy}-4-isopropoxyphenyl)butoxy]-1-isobutyl-1H-pyrazol-5-yl}propanoic acid]",122 to 123
14,"CC(C)Oc1ccc(CCCCOc2cc(CCC(=O)O)n(C(C)C)n2)c(Oc2ncc(C(F)(F)F)cc2Cl)c1 [Example 159, 3-{3-[4-(2-{[3-chloro-5-(trifluoromethyl)pyridin-2-yl]oxy}-4-isopropoxyphenyl)butoxy]-1-isopropyl-1H-pyrazol-5-yl}propanoic acid]",99.5 to 100.5

# The remaining lines, values ahead:
row,melting point [°C],Structure (SMILES)
1,78.3 to 80.8,"CN(C)CCOc1cc(CCCOc2nn(Cc3ccccc3)cc2CC(=O)O)n(Cc2ccc(Cl)cc2Cl)n1 [Example 96, [1-benzyl-3-(3-{1-(2,4-dichlorobenzyl)-3-[2-(dimethylamino)ethoxy]-1H-pyrazol-5-yl}propoxy)-1H-pyrazol-4-yl]acetic acid]"
2,184 to 186,"CCOc1cc(C(=O)c2ccccn2)ccc1OCCOc1c(CC(=O)O)cccc1OC [Example 123, (2-{2-[2-ethoxy-4-(pyridin-2-ylcarbonyl)phenoxy]ethoxy}-3-methoxyphenyl)acetic acid]"
3,97.5 to 98.5,"CCOc1cc(Cc2ccccn2)ccc1CCCOc1c(CC(=O)O)cccc1OC [Example 125, (2-{3-[2-ethoxy-4-(pyridin-2-ylmethyl)phenyl]propoxy}-3-methoxyphenyl)acetic acid]"
4,97 to 98,"CCn1cc(CC(=O)O)c(OCCCc2ccc(Cc3ccccn3)cc2OC(C)C)n1 [Example 126, (3-{3-[2-isopropoxy-4-(pyridin-2-ylmethyl)phenyl]propoxy}-1-ethyl-1H-pyrazol-4-yl)acetic acid]"
5,107 to 108,"CC(C)c1ncc(CCCOc2nn(C)cc2CC(=O)O)c(Oc2ccc(Cl)cc2Cl)n1 [Example 128, (3-{3-[4-(2,4-dichlorophenoxy)-2-isopropylpyrimidin-5-yl]propoxy}-1-methyl-1H-pyrazol-4-yl)acetic acid]"
6,98 to 99,"CC(C)c1ncc(CCCOc2nn(Cc3ccccc3)cc2CC(=O)O)c(Oc2ccc(Cl)cc2Cl)n1 [Example 129, (3-{3-[4-(2,4-dichlorophenoxy)-2-isopropylpyrimidin-5-yl]propoxy}-1-benzyl-1H-pyrazol-4-yl)acetic acid]"
7,89 to 91,"CCOc1ccc(CCCOc2c(CC(=O)O)cccc2OC)c(Oc2ccc(Cl)cc2Cl)n1 [Example 134, (2-{3-[2-(2,4-dichlorophenoxy)-6-ethoxypyridin-3-yl]propoxy}-3-methoxyphenyl)acetic acid]"
8,81 to 83,"CCOc1ccc(CCCOc2nn(C)cc2CC(=O)O)c(Oc2ccc(Cl)cc2Cl)n1 [Example 135, (3-{3-[2-(2,4-dichlorophenoxy)-6-ethoxypyridin-3-yl]propoxy}-1-methyl-1H-pyrazol-4-yl)acetic acid]"
9,77 to 78,"CC(C)Oc1ccc(CCCOc2cc(CCC(=O)O)n(C)n2)c(Oc2ncc(Cl)cc2Cl)c1 [Example 140, 3-[3-(3-{2-[(3,5-dichloropyridin-2-yl)oxy]-4-isopropoxyphenyl}propoxy)-1-methyl-1H-pyrazol-5-yl]propanoic acid]"
10,114 to 115,"COCCOc1ccc(CCCOc2cc(CCC(=O)O)n(C)n2)c(Oc2ncc(C(F)(F)F)cc2Cl)c1 [Example 148, 3-(3-{3-[2-{[3-chloro-5-(trifluoromethyl)pyridin-2-yl]oxy}-4-(2-methoxyethoxy)phenyl]propoxy}-1-methyl-1H-pyrazol-5-yl)propanoic acid]"
11,129.5 to 130.5,"CC(C)Oc1cc(Oc2ccc(C(F)(F)F)cn2)ccc1CCCOc1cc(CCC(=O)O)n(-c2ccccc2)n1 [Example 151, 3-{3-[3-(2-isopropoxy-4-{[5-(trifluoromethyl)pyridin-2-yl]oxy}phenyl)propoxy]-1-phenyl-1H-pyrazol-5-yl}propanoic acid]"
12,128 to 130,"CC(C)Oc1cc(Oc2ccc(C(F)(F)F)cn2)ccc1CCCOc1cc(CCC(=O)O)n(C)n1 [Example 152, 3-{3-[3-(2-isopropoxy-4-{[5-(trifluoromethyl)pyridin-2-yl]oxy}phenyl)propoxy]-1-methyl-1H-pyrazol-5-yl}propanoic acid]"
13,83 to 85,"COCCOc1cc(Oc2ccc(C(F)(F)F)cn2)ccc1CCCOc1cc(CCC(=O)O)n(-c2ccccc2)n1 [Example 153, 3-{3-[3-(2-(2-methoxyethoxy)-4-{[5-(trifluoromethyl)pyridin-2-yl]oxy}phenyl)propoxy]-1-phenyl-1H-pyrazol-5-yl}propanoic acid]"
14,109.5 to 110.5,"COCCOc1cc(Oc2ccc(C(F)(F)F)cn2)ccc1CCCOc1cc(CCC(=O)O)n(C)n1 [Example 154, 3-{3-[3-(2-(2-methoxyethoxy)-4-{[5-(trifluoromethyl)pyridin-2-yl]oxy}phenyl)propoxy]-1-methyl-1H-pyrazol-5-yl}propanoic acid]"
15,125 to 127,"CC(C)Oc1ccc(CCCOc2cc(CCC(=O)O)n(C)n2)c(OCc2ccc(Cl)cc2Cl)c1 [Example 161, 3-[3-(3-{2-[(2,4-dichlorobenzyl)oxy]-4-isopropoxyphenyl}propoxy) 1-methyl-1H-pyrazol-5-yl]propanoic acid]"
16,133 to 134,"CC(C)Cn1nc(OCCCc2ccc(OC(C)C)cc2OCc2ccc(Cl)cc2Cl)cc1CCC(=O)O [Example 162, 3-[3-(3-{2-[(2,4-dichlorobenzyl)oxy]-4-isopropoxyphenyl}propoxy) -1-isobutyl-1H-pyrazol-5-yl]propanoic acid]"
17,110 to 111,"CCn1nc(OCCCc2ccc(OC(C)C)cc2OCc2ccc(Cl)cc2Cl)cc1CCC(=O)O [Example 163, 3-[3-(3-{2-[(2,4-dichlorobenzyl)oxy]-4-isopropoxyphenyl}propoxy)-1-ethyl-1H-pyrazol-5-yl]propanoic acid]"
18,128.5 to 129.5,"COCCOc1ccc(CCCOc2cc(CCC(=O)O)n(C)n2)c(OCc2ccc(Cl)cc2Cl)c1 [Example 164, 3-(3-{3-[2-[(2,4-dichlorobenzyl)oxy]-4-(2-methoxyethoxy)phenyl]propoxy}-1-methyl-1H-pyrazol-5-yl)propanoic acid]"
19,114 to 116,"CCn1nc(OCCCc2ccc(OCCOC)cc2OCc2ccc(Cl)cc2Cl)cc1CCC(=O)O [Example 165, 3-(3-{3-{2-[(2,4-dichlorobenzyl)oxy]-4-(2-methoxyethoxy)phenyl}propoxy}-1-ethyl-1H-pyrazol-5-yl)propanoic acid]"
